From US6734177B2, “Certain salts of discodermolide acid, pharmaceutical compositions containing them and their use in treating tumors” (Novartis AG, priority 2001, dated 2004)

Legend:
Assay in all cases: Hollow fiber in vivo tumor cell cultivation model in athymic nude mice
Parameters in all cases: species or system human
1A9 ovarian carcinoma = system: 1A9 ovarian carcinoma
Source text: (§1) Utilizing this model, one can measure the ability of test compounds to inhibit the growth of human tumor cells in hollow fibers growing subcutaneously (s.c.) in athymic nude mice. The histologic tumor types employed were MIP 101 colon carcinoma, HCT-116 colon carcinoma, 1A9PTX22 ovarian carcinoma, and 1A9 ovarian carcinoma.
(§2) The HCT 116 human colon tumor cell line was obtained from the American Type Culture Collection, Rockville, Md. The MIP 101 human colon tumor cell line was obtained from Dr. Robert Kramer (Bristol Meyers Squibb) and was previously described (Niles R M, Wilhelm S A, Steele G D JR, Burke B, Christensen T, Dexter D, O'Brien M J, Thomas P, Zamcheck N. Isolation and characterization of an undifferentiated human colon carcinoma cell line (MIP-101). Cancer Invest. 1987;5(6):545-52.). The 1A9 and the 1A9PTX22 ovarian tumor cell lines were obtained from Dr. Toto Fojo, Medicine Branch, Division of Clinical Sciences, National Cancer Institute, National Institutes of Health, Bethesda, Md. 20892. The 1A9 is a clone of the ovarian carcinoma cell line, A2780 (Balachandran R, ter Haar E, Welsh M J, Grant S G, Day B W. The potent microtubule-stabilizing agent (+)-discodermolide induces apoptosis in human breast carcinoma cells-preliminary comparisons to paclitaxel. Anti-Cancer Drugs 1998; 9:67-76. [Errata: Anti-Cancer Drugs 1998: 9:369-370]). The 1A9PTX22 subline was isolated as an individual clone from the 1A9 cell line in a single step selection by exposure to 5 ng/mL paclitaxel in the presence of 5 μg/mL of verapamil. […] Resistance to paclitaxel was maintained after two years of culturing in drug-free media, and was attributed to the Ala^364→Thr mutation in β-tubulin that was found in the 1A9PTX22 cell line. All cell lines were propagated and expanded in RPMI 1640 medium containing 10% heat-inactivated FBS (Life Technologies, Grand Island, N.Y.) in a tissue culture incubator (37° C., controlled, humidified atmosphere containing 5% CO2). Cell expansions were performed in T75 tissue culture flasks (Costar®, Corning, N.Y.). For hollow fiber preparations, cells were harvested at 70-90% confluency using 0.25% Trypsin-EDTA (Life Technologies, Grand Island, N.Y.).
(§3) PVDF hollow fibers (Spectrum, Gardena, Calif.) were soaked in 70% EtOH for 72 hours before use. After this step, all handling of fibers was done under a biological laminar flow hood using aseptic procedures. Individual fibers were flushed with 3 mL of ice-cold tissue culture media using a syringe equipped with a 20-gauge needle. Next, each fiber was filled with an appropriate cell suspension (1×10^6 cells/mL for the 1A9 and 1A9PTX22 cells, and 0.3×10^6 cells/mL for the HCT 116 and MIP 101 cells), and both ends of the fiber were sealed with a hot flat needle holder. The entire length of the fiber was then sealed into 1.5 cm microcapsules (further called “hollow fibers”), each containing approximately 15 μL of the appropriate cell suspension. After separation, individual hollow fibers were placed in 6 well plates (6 fibers in 5 mL media per well), and were incubated overnight at 37° C. in the tissue culture incubator.
(§4) Outbred athymic (nu/nu) female mice (“Chrls:Athymic Nude-nu”, Charles River Laboratories, Wilmington, Mass.) were anesthetized with ip injections of Ketamine/Xylazine (150 mg/kg, and 12 mg/kg body weight, respectively). For the subcutaneous implantation an 11-gauge trocar containing one or two hollow fibers was inserted through an incision made with scissors at the nape of the neck of an animal, and fibers were released by retracting the trocar while depressing the plunger. This procedure was repeated until all four hollow fibers were implanted. One wound clip was used to close the skin incision. After the surgery each animal received a single, subcutaneous injection of 0.4 mg/kg butorphenol to relieve any potential pain. Animals recovered from the anesthesia on a heating pad, before returning to their cages. […]

[1] = system: 1A9PTX22 ovarian carcinoma; details: for Experiment #1 % T/C ± SEM / Experiment #2 % T/C ± SEM: 1A9PTX22 hollow fibers s.c., day 7, Paclitaxel 15 mg/kg i.v. daily for 5 days, Ex. 1 45 mg/kg i.v. once; for Average % T/C: 1A9PTX22 hollow fibers, average of experiments #1 and #2
Source text: as §1, §2, §3, §4

HCT-116 colon carcinoma = details: for Experiment #1 % T/C ± SEM / Experiment #2 % T/C ± SEM: HCT 116 hollow fibers s.c., day 7, Paclitaxel 15 mg/kg i.v. daily for 5 days, Ex. 1 45 mg/kg i.v. once; for Average % T/C: HCT 116 hollow fibers, average of experiments #1 and #2
Source text: as §1, §2, §3, §4

MIP 101 colon carcinoma = details: for Experiment #1 % T/C ± SEM / Experiment #2 % T/C ± SEM: MIP 101 hollow fibers s.c., day 7, Paclitaxel 15 mg/kg i.v. daily for 5 days, Ex. 1 45 mg/kg i.v. once; for Average % T/C: MIP 101 hollow fibers, average of experiments #1 and #2
Source text: as §1, §2, §3, §4

[2] = 1A9 hollow fibers s.c., day 7, Paclitaxel 15 mg/kg i.v. daily for 5 days, Ex. 1 45 mg/kg i.v. once
[3] = 1A9 hollow fibers, average of experiments #1 and #2

| Structure (SMILES) | Experiment #2 % T/C ± SEM (1A9 ovarian carcinoma; 1A9 hollow fibers s.c., day 7, Ex. 1 45 mg/kg i.v. once) | Experiment #1 % T/C ± SEM (1A9 ovarian carcinoma; [2]) | Average % T/C (1A9 ovarian carcinoma; [3]) | Experiment #1 % T/C ± SEM [1] | Experiment #2 % T/C ± SEM [1] | Average % T/C [1] | Experiment #1 % T/C ± SEM (HCT-116 colon carcinoma) | Experiment #2 % T/C ± SEM (HCT-116 colon carcinoma) | Average % T/C (HCT-116 colon carcinoma) | Experiment #1 % T/C ± SEM (MIP 101 colon carcinoma) | Experiment #2 % T/C ± SEM (MIP 101 colon carcinoma) | Average % T/C (MIP 101 colon carcinoma) | Experiment #2 regression (Reg.) (1A9 ovarian carcinoma; 1A9 hollow fibers s.c., day 7, Paclitaxel 15 mg/kg i.v. daily for 5 days, regression = (1−Mean T/Mean T0)×100%) | Average regression (Reg.) (1A9 ovarian carcinoma; [3]) |
| --- | --- | --- | --- | --- | --- | --- | --- | --- | --- | --- | --- | --- | --- | --- |
| C=C/C=C\[C@H](C)[C@H](OC(N)=O)[C@@H](C)[C@@H](O)[C@@H](C)C/C(C)=C\[C@H](C)[C@@H](O)[C@@H](C)/C=C\[C@@H](O)C[C@H](O)[C@H](C)[C@H](O)[C@@H](C)C(=O)[O-].[Na+] [Ex. 1, (2R,3S,4S,5S,7S,8Z,10S,11S,12S,13Z,16S,17S,18S,19S,20S,21Z)-19-[(aminocarbonyl)oxy]-3,5,7,11,17-pentahydroxy-2,4,10,12,14,16,18,20-octamethyl-8,13,21,23-tetracosatetraenoic acid, sodium salt] | 23 ± 8 % | 14 ± 4 % | 19% | 6 ± 2 % | 16 ± 7 % | 11% | 15 ± 4 % | 10 ± 3 % | 13% | 50 ± 9 % | 90 ± 9% | 70% |  |  |
| CC(=O)O[C@H]1C(=O)[C@@]2(C)[C@H]([C@H](OC(=O)c3ccccc3)[C@]3(O)C[C@H](OC(=O)[C@H](O)[C@@H](NC(=O)c4ccccc4)c4ccccc4)C(C)=C1C3(C)C)[C@]1(OC(C)=O)CO[C@@H]1C[C@@H]2O [paclitaxel] |  | 1 ± 3 % |  | 109 ± 16% | 84 ± 8% | 97% | 2 ± 1 % | 1 ± 2 % | 1% | 113 ± 10% | 112 ± 11% | 113% | 53% Reg.** | 26% Reg. |
